What was measured:
Assay in all cases: KINOMEscan Max
Format in all cases: binding
PIP5K2C = molecular target: T1, PIP5K2C (Homo sapiens, UniProt Q8TBX8)
T1 construct: DNA tag (qPCR read-out)
In short: (§1)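 Steps: mix DNA-tagged kinase, immobilized active-site ligand and compound; let compound compete with ligand for the kinase; quantify the kinase retained by qPCR on its DNA tag.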

PHKG2 = PHKG2 (Homo sapiens, UniProt P15735)
In short: as §1

TYRO3 = molecular target: T2, TYRO3 (Homo sapiens, UniProt Q06418)
T2 construct: purchased Ambit Kinomescan (contract screening service)
In short: as §1

MLK2 = MLK2 (Homo sapiens, UniProt Q02779)
MLK2, sequence (Q02779 whole entry): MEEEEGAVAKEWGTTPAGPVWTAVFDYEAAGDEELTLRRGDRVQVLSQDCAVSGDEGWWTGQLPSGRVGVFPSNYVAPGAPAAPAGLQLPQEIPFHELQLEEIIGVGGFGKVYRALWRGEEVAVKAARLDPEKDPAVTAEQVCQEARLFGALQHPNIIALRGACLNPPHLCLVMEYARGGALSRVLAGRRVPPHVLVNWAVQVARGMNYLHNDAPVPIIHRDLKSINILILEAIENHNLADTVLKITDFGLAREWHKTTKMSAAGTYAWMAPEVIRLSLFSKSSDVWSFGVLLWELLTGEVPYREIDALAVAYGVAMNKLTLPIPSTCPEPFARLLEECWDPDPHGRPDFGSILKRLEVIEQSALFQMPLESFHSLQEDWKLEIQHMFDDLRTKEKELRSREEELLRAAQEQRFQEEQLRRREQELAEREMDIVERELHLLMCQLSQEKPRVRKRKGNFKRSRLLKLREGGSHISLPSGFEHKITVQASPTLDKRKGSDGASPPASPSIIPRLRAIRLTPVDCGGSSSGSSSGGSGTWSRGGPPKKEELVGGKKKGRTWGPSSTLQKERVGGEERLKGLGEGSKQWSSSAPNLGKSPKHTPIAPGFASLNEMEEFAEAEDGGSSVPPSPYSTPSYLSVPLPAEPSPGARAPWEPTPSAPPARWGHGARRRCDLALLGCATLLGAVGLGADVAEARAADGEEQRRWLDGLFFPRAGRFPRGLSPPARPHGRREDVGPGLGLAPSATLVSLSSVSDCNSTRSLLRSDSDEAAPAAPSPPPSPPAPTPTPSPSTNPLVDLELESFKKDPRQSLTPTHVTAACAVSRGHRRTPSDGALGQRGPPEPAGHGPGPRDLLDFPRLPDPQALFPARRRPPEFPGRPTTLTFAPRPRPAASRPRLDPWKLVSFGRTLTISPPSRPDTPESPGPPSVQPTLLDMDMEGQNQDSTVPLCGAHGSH
In short: as §1

[1] = molecular target: T3, RSK2(Kin.Dom.1-N-terminal) (Homo sapiens, UniProt P51812)
T3 construct: RSK2(Kin.Dom.1-N-terminal); DNA tag (qPCR read-out)
In short: as §1

IGF1R = molecular target: T4, IGF1R (Homo sapiens, UniProt P08069)
T4 construct: purchased Ambit Kinomescan (contract panel, KINOMEscan Max)
In short: as §1

TLK1 = molecular target: T5, TLK1 (Homo sapiens, UniProt Q9UKI8)
T5 construct: DNA tag (qPCR read-out)
In short: as §1

PLK4 = molecular target: T6, PLK4 (Homo sapiens, UniProt O00444)
T6 construct: DNA tag (qPCR read-out)
T6 sequence (O00444 whole entry): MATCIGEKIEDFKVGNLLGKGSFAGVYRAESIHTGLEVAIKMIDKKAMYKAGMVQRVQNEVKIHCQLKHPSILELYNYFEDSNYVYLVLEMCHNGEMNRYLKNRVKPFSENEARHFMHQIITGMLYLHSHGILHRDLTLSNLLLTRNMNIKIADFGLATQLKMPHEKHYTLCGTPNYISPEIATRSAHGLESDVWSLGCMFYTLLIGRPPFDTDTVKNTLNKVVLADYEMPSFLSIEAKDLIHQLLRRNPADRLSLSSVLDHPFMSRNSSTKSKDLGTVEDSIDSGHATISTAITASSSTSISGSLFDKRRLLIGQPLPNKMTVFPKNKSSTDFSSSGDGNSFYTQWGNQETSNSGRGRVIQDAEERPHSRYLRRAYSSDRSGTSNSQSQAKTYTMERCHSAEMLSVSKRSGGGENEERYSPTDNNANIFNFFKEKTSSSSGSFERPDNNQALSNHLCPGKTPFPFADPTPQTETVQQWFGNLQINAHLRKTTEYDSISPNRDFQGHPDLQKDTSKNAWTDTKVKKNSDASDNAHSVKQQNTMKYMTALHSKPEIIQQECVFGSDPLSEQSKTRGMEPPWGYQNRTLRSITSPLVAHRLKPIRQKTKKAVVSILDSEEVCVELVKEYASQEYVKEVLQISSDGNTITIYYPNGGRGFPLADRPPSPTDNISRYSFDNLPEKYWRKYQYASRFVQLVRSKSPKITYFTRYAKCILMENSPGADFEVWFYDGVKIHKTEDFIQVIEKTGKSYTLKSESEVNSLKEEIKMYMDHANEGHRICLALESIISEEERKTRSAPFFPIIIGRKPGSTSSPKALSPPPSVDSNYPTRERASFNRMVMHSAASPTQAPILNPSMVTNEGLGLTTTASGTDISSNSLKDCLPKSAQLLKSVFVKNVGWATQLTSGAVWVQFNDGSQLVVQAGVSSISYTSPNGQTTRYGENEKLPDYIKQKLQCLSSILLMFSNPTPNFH
In short: as §1

WEE1 = WEE1 (Homo sapiens, UniProt P30291)
In short: as §1

CSNK1A1 = molecular target: T7, CSNK1A1 (Homo sapiens, UniProt P48729)
T7 construct: DNA tag (qPCR read-out)
T7 sequence (P48729 whole entry): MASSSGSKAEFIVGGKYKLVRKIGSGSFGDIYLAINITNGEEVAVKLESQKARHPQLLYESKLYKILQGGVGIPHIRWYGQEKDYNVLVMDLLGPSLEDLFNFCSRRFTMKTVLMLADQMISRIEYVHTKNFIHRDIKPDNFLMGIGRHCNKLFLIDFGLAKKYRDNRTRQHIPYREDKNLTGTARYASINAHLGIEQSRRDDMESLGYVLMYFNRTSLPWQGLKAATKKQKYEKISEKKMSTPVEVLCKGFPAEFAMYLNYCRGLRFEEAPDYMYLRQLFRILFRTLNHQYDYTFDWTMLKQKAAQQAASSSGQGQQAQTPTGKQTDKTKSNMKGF
In short: as §1

EPHB2 = molecular target: T8, EPHB2 (Homo sapiens, UniProt P29323); settings: 1 μM
T8 construct: purchased Ambit (KINOMEscan Max service)
In short: as §1

FLT3 = molecular target: T9, FLT3 (Homo sapiens, UniProt P36888)
T9 construct: purchased Ambit Kinomescan (contract panel, KINOMEscan Max)
In short: as §1

CAMK1G = molecular target: T10, CAMK1G (Homo sapiens, UniProt Q96NX5)
T10 construct: DNA tag (qPCR label); purchased Ambit Kinomescan (contract screening)
In short: as §1

KIT(D816H) = molecular target: T11, KIT(D816H) (Homo sapiens, UniProt P10721, D816H)
T11 construct: purchased Ambit Kinomescan (contract screening)
In short: as §1

MARK4 = molecular target: T12, MARK4 (Homo sapiens, UniProt Q96L34); settings: 1 μM
T12 construct: purchased Ambit (KINOMEscan Max service)
In short: as §1

PRKD3 = molecular target: T13, PRKD3 (Homo sapiens, UniProt O94806)
T13 construct: DNA tag (qPCR read-out)
T13 sequence (O94806 whole entry): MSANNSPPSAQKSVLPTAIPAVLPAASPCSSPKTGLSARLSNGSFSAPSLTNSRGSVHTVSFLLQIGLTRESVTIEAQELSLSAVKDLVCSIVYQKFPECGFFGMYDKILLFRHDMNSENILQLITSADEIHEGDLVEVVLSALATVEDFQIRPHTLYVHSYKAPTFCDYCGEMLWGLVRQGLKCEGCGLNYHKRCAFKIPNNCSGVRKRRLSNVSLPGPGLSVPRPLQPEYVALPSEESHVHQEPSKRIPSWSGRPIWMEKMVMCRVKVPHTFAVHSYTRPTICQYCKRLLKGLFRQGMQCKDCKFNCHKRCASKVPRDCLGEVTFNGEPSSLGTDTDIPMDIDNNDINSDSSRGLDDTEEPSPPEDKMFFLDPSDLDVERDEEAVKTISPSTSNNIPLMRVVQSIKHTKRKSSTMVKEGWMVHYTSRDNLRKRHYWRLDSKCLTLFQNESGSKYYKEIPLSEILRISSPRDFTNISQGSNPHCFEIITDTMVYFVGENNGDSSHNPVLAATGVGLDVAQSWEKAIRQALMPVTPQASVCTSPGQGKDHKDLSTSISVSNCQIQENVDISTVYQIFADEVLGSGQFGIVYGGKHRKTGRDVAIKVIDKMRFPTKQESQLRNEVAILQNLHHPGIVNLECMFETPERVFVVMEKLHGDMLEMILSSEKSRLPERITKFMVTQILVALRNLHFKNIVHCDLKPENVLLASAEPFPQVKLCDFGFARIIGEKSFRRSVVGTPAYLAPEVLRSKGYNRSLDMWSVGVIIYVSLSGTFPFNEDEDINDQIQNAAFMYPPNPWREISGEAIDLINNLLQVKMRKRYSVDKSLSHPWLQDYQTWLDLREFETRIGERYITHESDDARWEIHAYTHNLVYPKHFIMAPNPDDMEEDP
In short: as §1

MUSK = molecular target: T14, MUSK (Homo sapiens, UniProt O15146)
T14 construct: purchased Ambit Kinomescan (contract screening)
In short: as §1

PFCDPK1(P.falciparum) = molecular target: T15, PFCDPK1(P.falciparum) (Plasmodium falciparum, UniProt P62344)
T15 construct: purchased Ambit Kinomescan (contract screening)
T15 sequence (P62344 whole entry): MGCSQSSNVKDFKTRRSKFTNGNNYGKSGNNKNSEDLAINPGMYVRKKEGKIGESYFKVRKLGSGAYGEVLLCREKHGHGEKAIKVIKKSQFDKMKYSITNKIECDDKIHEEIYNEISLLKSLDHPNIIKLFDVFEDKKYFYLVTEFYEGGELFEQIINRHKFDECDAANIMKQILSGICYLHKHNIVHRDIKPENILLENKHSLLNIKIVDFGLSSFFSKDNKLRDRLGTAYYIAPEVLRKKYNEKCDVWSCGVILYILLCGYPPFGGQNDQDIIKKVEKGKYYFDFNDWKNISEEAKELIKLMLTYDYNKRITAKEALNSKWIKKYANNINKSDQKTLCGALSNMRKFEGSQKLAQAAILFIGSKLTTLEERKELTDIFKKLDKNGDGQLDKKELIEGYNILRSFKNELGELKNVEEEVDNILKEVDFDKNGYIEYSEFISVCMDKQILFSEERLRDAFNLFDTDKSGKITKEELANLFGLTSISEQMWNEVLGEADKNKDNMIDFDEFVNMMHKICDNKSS
In short: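 qPCR read-out of a DNA tag measures how much tagged kinase stays bound to immobilized active-site ligand when test compound is present, i.e. competition binding.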

TRPM6 = TRPM6 (Homo sapiens, UniProt Q9BX84)
In short: as §1

MLK3 = MLK3 (Homo sapiens, UniProt Q16584); settings: 1 μM
In short: as §1

NEK2 = NEK2 (Homo sapiens, UniProt P51955)
In short: as §1

MAK = MAK (Homo sapiens, UniProt P20794)
In short: as §1

[2] = molecular target: ABL1(Y253F)-phosphorylated (Homo sapiens, UniProt P00519, Y253F)
In short: as §1

MKK7 = MKK7 (Homo sapiens, UniProt O14733); settings: 1 μM
In short: as §1

NIM1 = NIM1 (Homo sapiens, UniProt Q8IY84)
In short: as §1

TAOK3 = molecular target: T16, TAOK3 (Homo sapiens, UniProt Q9H2K8)
T16 construct: purchased Ambit Kinomescan (contract screening service)
T16 sequence (Q9H2K8 whole entry): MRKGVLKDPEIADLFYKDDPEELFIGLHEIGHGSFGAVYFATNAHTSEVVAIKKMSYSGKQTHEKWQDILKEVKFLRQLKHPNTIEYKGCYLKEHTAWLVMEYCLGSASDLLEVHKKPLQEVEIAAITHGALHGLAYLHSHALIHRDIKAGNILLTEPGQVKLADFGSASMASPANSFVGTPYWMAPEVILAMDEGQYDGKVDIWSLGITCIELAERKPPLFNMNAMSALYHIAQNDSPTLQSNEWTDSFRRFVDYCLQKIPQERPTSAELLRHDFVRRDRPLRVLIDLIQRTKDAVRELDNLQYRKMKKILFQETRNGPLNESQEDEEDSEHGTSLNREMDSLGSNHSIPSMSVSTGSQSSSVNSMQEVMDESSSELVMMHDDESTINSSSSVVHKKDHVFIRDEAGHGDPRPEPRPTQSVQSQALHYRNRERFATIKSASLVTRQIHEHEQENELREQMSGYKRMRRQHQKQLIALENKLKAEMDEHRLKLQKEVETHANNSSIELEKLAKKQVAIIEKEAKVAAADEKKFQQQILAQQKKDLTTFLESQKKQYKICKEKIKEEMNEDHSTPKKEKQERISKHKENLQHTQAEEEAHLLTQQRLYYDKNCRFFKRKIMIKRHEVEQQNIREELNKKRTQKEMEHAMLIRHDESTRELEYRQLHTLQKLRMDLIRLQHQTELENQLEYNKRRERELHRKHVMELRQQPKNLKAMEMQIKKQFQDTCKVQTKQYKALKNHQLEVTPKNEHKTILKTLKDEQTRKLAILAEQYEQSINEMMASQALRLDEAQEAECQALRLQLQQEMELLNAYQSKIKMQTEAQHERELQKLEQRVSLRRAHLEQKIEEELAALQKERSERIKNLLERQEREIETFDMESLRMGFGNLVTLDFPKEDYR
In short: as §1

STK36 = molecular target: T17, STK36 (Homo sapiens, UniProt Q9NRP7)
T17 construct: DNA tag (qPCR read-out)
In short: as §1

MKNK2 = molecular target: T18, MKNK2 (Homo sapiens, UniProt Q9HBH9)
T18 construct: DNA tag (qPCR read-out)
In short: as §1

MAP4K2 = MAP4K2 (Homo sapiens, UniProt Q12851)
In short: as §1

CSNK1G3 = CSNK1G3 (Homo sapiens, UniProt Q9Y6M4); settings: 1 μM
In short: as §1

NEK4 = NEK4 (Homo sapiens, UniProt P51957)
In short: as §1

IKK-beta = molecular target: T19, IKK-beta (Homo sapiens, UniProt O14920)
T19 construct: DNA tag (qPCR read-out)
In short: as §1

CLK3 = molecular target: T20, CLK3 (Homo sapiens, UniProt P49761)
T20 construct: purchased Ambit (KINOMEscan Max service)
T20 sequence (P49761 whole entry): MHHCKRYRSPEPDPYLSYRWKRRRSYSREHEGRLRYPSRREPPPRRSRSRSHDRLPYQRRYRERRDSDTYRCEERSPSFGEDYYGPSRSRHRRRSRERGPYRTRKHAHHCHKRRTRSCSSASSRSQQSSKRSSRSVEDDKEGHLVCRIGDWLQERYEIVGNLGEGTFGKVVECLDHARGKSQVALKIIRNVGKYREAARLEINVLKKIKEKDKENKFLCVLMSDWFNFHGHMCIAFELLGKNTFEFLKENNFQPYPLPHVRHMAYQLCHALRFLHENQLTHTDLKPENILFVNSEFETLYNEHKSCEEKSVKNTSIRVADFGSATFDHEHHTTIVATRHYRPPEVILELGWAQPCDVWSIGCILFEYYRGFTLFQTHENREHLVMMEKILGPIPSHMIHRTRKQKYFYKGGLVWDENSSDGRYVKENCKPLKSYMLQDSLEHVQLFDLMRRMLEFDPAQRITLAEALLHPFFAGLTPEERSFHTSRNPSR
In short: as §1

NEK1 = NEK1 (Homo sapiens, UniProt Q96PY6)
In short: as §1

PIK3CA(E545A) = molecular target: T21, PIK3CA(E545A) (Homo sapiens, UniProt P42336, E545A)
T21 construct: purchased Ambit Kinomescan (contract screening)
In short: as §1

NCCCNc1nc2c(Br)c(Br)c(Br)c(Br)c2[nH]1 [Compound 11, N-(3-aminopropyl)-4,5,6,7-tetrabromo-1H-benzo[d]imidazol-2-amine]
remaining binding at 1 µM (PIP5K2C): 56%
remaining binding at 1 µM (PHKG2): 75%
remaining binding at 1 µM (TYRO3): 100%
remaining binding at 1 µM (MLK2): 100%
remaining binding at 1 µM [1]: 100%
remaining binding at 1 µM (IGF1R): 100%
remaining binding at 1 µM (TLK1): 89%
remaining binding at 1 µM (PLK4): 100%
remaining binding at 1 µM (WEE1): 91%
remaining binding at 1 µM (CSNK1A1): 35%
% binding (EPHB2): 72%
remaining binding at 1 µM (FLT3): 100%
remaining binding at 1 µM (CAMK1G): 100%
remaining binding at 1 µM (KIT(D816H)): 97%
% binding (MARK4): 84%
remaining binding at 1 µM (PRKD3): 27%
remaining binding at 1 µM (MUSK): 97%
remaining binding at 1 µM (PFCDPK1(P.falciparum)): 96%
remaining binding at 1 µM (TRPM6): 91%
% binding (MLK3): 95%
remaining binding at 1 µM (NEK2): 99%
remaining binding at 1 µM (MAK): 79%
remaining binding at 1 µM [2]: 100%
% binding (MKK7): 100%
remaining binding at 1 µM (NIM1): 99%
remaining binding at 1 µM (TAOK3): 100%
remaining binding at 1 µM (STK36): 100%
remaining binding at 1 µM (MKNK2): 35%
remaining binding at 1 µM (MAP4K2): 78%
% binding (CSNK1G3): 92%
remaining binding at 1 µM (NEK4): 98%
remaining binding at 1 µM (IKK-beta): 56%
remaining binding at 1 µM (CLK3): 70%
remaining binding at 1 µM (NEK1): 100%
remaining binding at 1 µM (PIK3CA(E545A)): 96%

From US20110230481A2, “DERIVATIVES OF TETRABROMOBENZIMIDAZOLE, A PROCESS FOR THE PREPARATION THEREOF, A PHARMACEUTICAL COMPOSITION COMPRISING THE SAME, A METHOD OF USING THE SAME, A METHOD FOR MODULATING OR REGULATING SERINE/THREONINE KINASES, AND SERINE/THREONINE KINASES MODULATING AGENT” (SELVITA S.A., priority 2009, published 2011)
